The target in test [1] is T1, ASH1L SET-BAH construct (amino acids 2069-2833) (Homo sapiens, UniProt Q9NR48).
T1 construct: ASH1L SET-BAH construct (amino acids 2069-2833) at 0.25 μM was incubated with 0.7 μM SAM; MOCR fusion (TEV-cleavable); made in house; host or cells: E. coli BL21(DE3) T1R
The test is described as follows: ASH1L histone methyltransferase assay (KMTase assay). Type of test: biochemical. Particulars: Table 6 section headings give the IC50 class; assay not given. On the procedure:
ASH1L Histone Methyltransferase Assay (KMTase Assay)
The reactions were stopped by spotting 5 μL of the reaction mixture on P81 cellulose squares (Reaction Biology). The P81 squares were dried for 45 min and washed five times with 50 mM sodium bicarbonate (pH 9.0), 10 min per wash. The P81 squares were then dried for 1 h, added to 10 mL of Ultima Gold scintillation cocktail (PerkinElmer), and analyzed using a Beckman scintillation counter.

The subject of test [2] is Hoxa cluster, Meis1 genes in control cell line HM-2. Description: Quantitative RT-PCR of MLL fusion target genes, HM-2 control cell line. Type of test: cell-based, mouse. Conditions: normalized to β-actin. On the procedure:
(§1) Total RNA was extracted from cells using the RNeasy mini kit (QIAGEN), and then 100-2000 ng of total RNA was reverse transcribed using the High Capacity cDNA Reverse Transcription Kit (Applied Biosystems) according to the manufacturer's protocol. Real-time PCR was performed using a CFX96 Real-Time PCR Detection System (Biorad). TaqMan Gene Expression Master Mix and TaqMan Gene Expression Assays for mouse Gapdh (Mm99999915), mouse Ash1l (Mm00467322), mouse Hoxa7 (Mm00657963), mouse Hoxa9 (Mm00439364), mouse Hoxa10 (Mm00433966), mouse Meis1 (Mm00487664), and mouse B-actin (Mm00607939) were purchased from Thermo Fisher. Relative quantification of each gene transcript was carried out using the ΔΔCt method as described in the Biorad Real-Time PCR Applications Guide.

For test [3], the system named is MLL fusion target genes (Hoxa cluster, Meis1) in MLL-AF9 cells. The test is described as follows: Quantitative RT-PCR of MLL fusion target genes, MLL-AF9 cells. Type of test: cell-based, mouse. Conditions: for Expression of MLL fusion target genes (Hoxa cluster, Meis1): MLL-AF9 cells, normalized to β-actin. On the procedure:
as §1

The next test concerns MLL-AF9 cells. Description: Differentiation (cytospin/Wright-Giemsa staining), MLL-AF9 cells. Type of test: cell-based, mouse. The protocol: Cytospin/Wrigtht-Giemsa Staining
1×10^5 MA9 mouse BMCs treated with compounds were harvested and placed in a Shandon EZ Single Cytofunnel (Thermo Fisher). Samples were centrifuged at 600 rpm for 5 min. The slides were air dried before staining with a Hema-3 kit (Thermo Fisher).

Test [4] deals with MOLM13 cells expressing MLL-AF9. Description: Cell viability (MTT) assay, MOLM13 cells. Type of test: cell-based, human. Conditions: 4 days of treatment. On the procedure: (§2) MA9 (MLL-AF9 transformed), HM2 (Hoxa9/Meis1 transformed) murine bone marrow cells (BMC), MV4;11 and MOL13 human leukemia cells were plated at 1×10^5 cells/ml in 24-well plates, treated with 0.25% DMSO or compounds and cultured at 37° C. for 12 days. Every four days, the volume corresponding to 1×10^5 cells of DMSO-treated cells was spun down and resuspended in fresh media with fresh compound. At day 0 and each four day interval, 100 μl aliquots of the cell suspension were transferred to 96-well plates in quadruplicates. The quadruplicate samples were incubated for 4 days at 37° C., and then an MTT cell proliferation assay kit (Roche) was used to measure viable cells. Absorbance was read at 570 nm using a PHERAstar (BMG) microplate reader.

Test [5] deals with MV4;11 cells (expressing MLL-AF4). Description: Cell viability (MTT) assay, MV4;11 cells. Particulars: 4 days of treatment. In kind it is cell-based, human. The protocol:
as §2

Test [6] has as its system HM-2 (Hoxa9/Meis1) negative control cell line. The test is described as follows: Differentiation, HM-2 control cell line. Type of test: cell-based, murine. Particulars: negative control cell line HM-2.
Test [7] has as its system murine bone marrow cells transformed with MLL-AF9 (MA9). The test is described as follows: Cell viability (MTT) assay, MLL-AF9 transformed murine bone marrow cells. In kind it is cell-based. Conditions: 8 days of treatment. The protocol: as §2
The test system of test [8] is human acute leukemia cells with various MLL translocations. The test is described as follows: Cell proliferation in a panel of human acute leukemia cells. Type of test: cell-based. The protocol: as §2
A further test concerns the target T2, ASH1L (Homo sapiens, UniProt Q9NR48).
T2 construct: endogenous in cells; host or cells: HeLa
The test is described as follows: ASH1L degradation in HeLa cells. In kind it is cell-based. Conditions: 0.05-50 μM.

pIC50: −log10 of the molar value. A value given as a limit tells only on which side of the number the result lay.

The pIC50 is −log10 of the IC50, conventionally taken in molar units. On to `NC(=S)c1cccc(-c2cccc3[nH]ccc23)c1` [Compound 34], for which the pIC50 in test [1] is under 4.00.
As for `NC(=S)c1ccc(O)c(-c2cccc3[nH]ncc23)c1` [Compound 35], the negative logarithm of the IC50 (pIC50) in test [1] was under 4.00.
As for `NC(=S)c1cccc(-c2c[nH]c3ccc(O)cc23)c1` [Compound 69], the “Expression of MLL fusion target genes (Hoxa cluster, Meis1)” value in test [2] and in test [3] was “does not affect gene expression” each time.
Compound `NC(=S)c1cccc(-c2c[nH]c3ccccc23)c1` [Compound 89] gave a pIC50 in test [1] of 4.00 to 4.70.
On the same count and under the same terms, for `NC(=S)c1cccc(-c2cn(CCCC(F)(F)F)c3cc(CNCc4ccccc4)ccc23)c1` [Compound 120] the value was over 4.70.
For the compound `NC(=S)c1cccc(-c2cn(CC(CF)CF)c3cc(N)ccc23)c1` [Compound 126, 3-(6-amino-1-(3-fluoro-2-(fluoromethyl)propyl)-1H-indol-3-yl)benzothioamide], the Differentiation of cells entry is listed as “induces differentiation” in the test with MLL-AF9 cells and “but not in negative control cell line HM-2” in test [6]. In addition, the “Inhibition of cell proliferation” value in test [4], in [5] and in [7] was “Inhibition of cell proliferation” each time. Also, the “Expression of MLL fusion target genes (Hoxa cluster, Meis1)” value in [2] is on record as “has no effect on expression”; in test [3], “downregulates expression”.
Take `CC(=O)Nc1ccc2c(-c3cccc(C(N)=S)c3)cn(CC(CF)CF)c2c1` [Compound 136]: in [1], the negative-log IC50 (pIC50) is over 4.70.
The same measure, in the same setting: then `NC(=S)c1cccc(-c2cn(CC(CF)CF)c3cc(NC(=O)c4cc[nH]c4)ccc23)c1` [Compound 137], with over 4.70; and `NC(=S)c1cccc(-c2cn(CC(CO)(C(F)F)C(F)F)c3cc(CO)ccc23)c1` [Compound 200], with over 4.70.
As to `NC(=S)c1cccc(-c2cn(CC(CF)CF)c3cc(C(O)CC(F)(F)F)ccc23)c1` (stereo not drawn) [Compound 202], in [1], the negative-log IC50 (pIC50) was over 4.70.
`NC(=S)c1cccc(-c2cn(CC(CF)CF)c3cc(CNC(=O)c4cnc[nH]4)ccc23)c1` [Compound 203] gave a pIC50 in [1] of over 4.70.
On to `NC(=O)NCc1ccc2c(-c3cccc(C(N)=S)c3)cn(CC(CF)CF)c2c1` [Compound 204], for which the pIC50 in test [1] is over 4.70.
Still for that read-out and setting: then `NC(=S)c1cccc(-c2cn(CC(CF)CF)c3cc(CNC(=O)CC(F)(F)F)ccc23)c1` [Compound 206], with over 4.70; and `NC(=S)c1cccc(-c2cn(C(C(F)(F)F)C(F)(F)F)c3cc(CO)ccc23)c1` [Compound 207], with over 4.70.
Same read-out and setting: for `NC(=S)c1cccc(-c2cn(CC(CO)(C(F)F)C(F)F)c3cc(C(O)CF)ccc23)c1` (stereo not drawn) [Compound 209] the value was over 4.70.
With `NC(=S)c1cccc(-c2cn(-c3ccc[nH]3)c3cc(CO)ccc23)c1` [Compound 220], in [1], the negative logarithm of the IC50 (pIC50) is over 4.70.
Regarding `NC(=S)c1cccc(-c2cn(CCCC(F)(F)F)c3cc(-c4ccn[nH]4)ccc23)c1` [Compound 260], in test [8], the Cell proliferation entry is “inhibits cell proliferation”. Besides, the “Expression of MLL fusion target genes (Hoxa9, Hoxa10 and Meis1)” value in test [3] (MLL-AF9 transformed murine leukemia cells) is on record as “downregulates expression”.
`NC(=S)c1cccc(-c2cn(CC(CF)CF)c3cc(NC(=O)CCOCCOCCOCCOc4cccc5c4C(=O)N(C4CCC(=O)NC4=O)C5=O)ccc23)c1` (stereo not drawn) [Compound 301]: the “Degradation of ASH1L” value at ASH1L was “Degradation of ASH1L induced”. This compound also showed a pIC50 in test [1] of over 4.70.

For the origin of these results see US11883381B2, “ASH1L inhibitors and methods of treatment therewith” (The Regents of the University of Michigan, priority 2016, dated 2024).
